Read-outs that look alike come from different tables or passages of the source.
Experiments:
recombinant USP1 protein = biological target: T1, recombinant USP1 protein (Homo sapiens, UniProt O94782, DEL125-138/DEL229-408/DEL608-737); assay: Binding affinity to recombinant USP1 protein by differential scanning fluorimetry; details: read-out: ΔTm (°C)
T1 sequence (O94782 with tags, fused parts or gaps DEL125-138/DEL229-408/DEL608-737): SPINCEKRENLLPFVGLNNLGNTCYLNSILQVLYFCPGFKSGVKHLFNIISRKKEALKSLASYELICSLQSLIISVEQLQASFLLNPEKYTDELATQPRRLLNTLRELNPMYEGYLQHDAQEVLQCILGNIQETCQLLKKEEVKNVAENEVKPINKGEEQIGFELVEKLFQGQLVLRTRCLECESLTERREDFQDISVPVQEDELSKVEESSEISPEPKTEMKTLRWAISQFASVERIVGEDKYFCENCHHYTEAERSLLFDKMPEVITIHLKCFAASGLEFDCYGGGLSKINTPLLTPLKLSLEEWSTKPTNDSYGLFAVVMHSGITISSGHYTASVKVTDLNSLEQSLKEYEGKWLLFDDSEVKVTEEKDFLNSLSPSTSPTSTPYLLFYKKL
Procedure, shortened: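 USP1 (Δ1-66, Δ125-138, Δ229-408, Δ608-737) at 0.03 mg/mL with dye in 50 mM Tris-HCl pH 8.0, 150 mM NaCl, 2% glycerol, 1 mM DTT; compounds at 100 µM final. Tm read on real-time PCR instrument; ΔTm = Tm with compound minus Tm with DMSO.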

UWB1.289 cells = assay: Cell proliferation inhibitory activity in BRCA1/2-mutant or HRD-positive cells (Cell Titer-Glo); format: cell-based; details: read-out: GI50 UWB1.289 BRCA1 mut
Procedure, shortened: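 UWB1.289 cells (1,000/well) in 50% MEBM/50% RPMI1640 exposed to […], final 1.5 nM to 10 µM, for 144 h at 37 °C. Viable cells measured by CellTiter-Glo luminescence; GI50 calculated.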

[1] = compound 100 µM, 0.03 mg/mL USP1 (Δ1-66, Δ125-138, Δ229-408, Δ608-737), Tm with compound minus Tm with DMSO
[2] = UWB1289, UWB1.289 cells, 144 hours after compound treatment, Cell Titer-Glo, 1.5 nM to 10 µM

| ΔTm at 100 µM (recombinant USP1 protein; [1]) [°C] | SMILES | GI50 (UWB1.289 cells; [2]) [nM] | ΔTm at 100 µM (recombinant USP1 protein) [°C] | GI50 (UWB1.289 cells; UWB1289, 144 h) [nM] |
| --- | --- | --- | --- | --- |
| > 5 | COc1ncnc(C2CC2)c1-c1ncc2cc(C(=O)NC3(C)CC(F)(F)C3)n(Cc3ccc(-c4nc(C(F)(F)F)cn4C(C)C)cc3)c2n1 [Example 116, 2-(4-cyclopropyl-6-methoxypyrimidin-5-yl)-N-(3,3-difluoro-1-methylcyclobutyl)-7-(4-(1-isopropyl-4-(trifluoromethyl)-1H-imidazol-2-yl)benzyl)-7H-pyrrolo[2,3-d]pyrimidine-6-carboxamide] | < 100 | – | – |
| > 5 | COc1ncnc(C2CC2)c1-c1ncc2cc(C(=O)NCC(C)(C)N)n(Cc3ccc(-c4nc(C(F)(F)F)cn4C(C)C)cc3)c2n1 [Example 118, N-(2-amino-2-methylpropyl)-2-(4-cyclopropyl-6-methoxypyrimidin-5-yl)-7-(4-(1-isopropyl-4-(trifluoromethyl)-1H-imidazol-2-yl)benzyl)-7H-pyrrolo[2,3-d]pyrimidine-6-carboxamide] | < 100 | – | – |
| > 5 | CNC(=O)c1cc2cnc(-c3c(OC(C)C)ncnc3C3CC3)nc2n1Cc1ccc(-c2nc(C(F)(F)F)cn2C(C)C)cc1 [Example 119, 2-(4-cyclopropyl-6-isopropoxypyrimidin-5-yl)-7-(4-(1-isopropyl-4-(trifluoromethyl)-1H-imidazol-2-yl)benzyl)-N-methyl-7H-pyrrolo[2,3-d]pyrimidine-6-carboxamide] | < 100 | – | – |
| > 5 | COc1ncnc(C2CC2)c1-c1ncc2cc(C(=O)N[C@H]3C[C@H](OC)C3)n(Cc3ccc(-c4nc(C(F)(F)F)cn4C(C)C)cc3)c2n1 [Example 122, 2-(4-cyclopropyl-6-methoxypyrimidin-5-yl)-7-(4-(1-isopropyl-4-(trifluoromethyl)-1H-imidazol-2-yl)benzyl)-N-((1r,3r)-3-methoxycyclobutyl)-7H-pyrrolo[2,3-d]pyrimidine-6-carboxamide] | 100 to 500 | – | – |
| > 5 | COc1ncnc(C2CC2)c1-c1ncc2cc(C(=O)NCC3(C)COC3)n(Cc3ccc(-c4nc(C(F)(F)F)cn4C(C)C)cc3)c2n1 [Example 125, 2-(4-cyclopropyl-6-methoxypyrimidin-5-yl)-7-(4-(1-isopropyl-4-(trifluoromethyl)-1H-imidazol-2-yl)benzyl)-N-((3-methyloxetan-3-yl)methyl)-7H-pyrrolo[2,3-d]pyrimidine-6-carboxamide] | < 100 | – | – |
| > 5 | COc1ncnc(C2CC2)c1-c1ncc2cc(C(=O)NC[C@H]3CCCO3)n(Cc3ccc(-c4nc(C(F)(F)F)cn4C(C)C)cc3)c2n1 [Example 127, (R) -2-(4-cyclopropyl-6-methoxypyrimidin-5-yl)-7-(4-(1-isopropyl-4-(trifluoromethyl)-1H-imidazol-2-yl)benzyl)-N-((tetrahydrofuran-2-yl)methyl)-7H-pyrrolo[2,3-d]pyrimidine-6-carboxamide] | < 100 | – | – |
| > 5 | COc1ncnc(C2CC2)c1-c1ncc2cc(C(=O)N[C@H]3C[C@H]3F)n(Cc3ccc(-c4nc(C(F)(F)F)cn4C(C)C)cc3)c2n1 [Example 129, 2-(4-cyclopropyl-6-methoxypyrimidin-5-yl)-N-((1S,2R)-2-fluorocyclopropyl)-7-(4-(1-isopropyl-4-(trifluoromethyl)-1H-imidazol-2-yl)benzyl)-7H-pyrrolo[2,3-d]pyrimidine-6-carboxamide] | < 100 | – | – |
| > 5 | CNC(=O)c1cc2cnc(-c3c(OC4CC4)ncnc3C3CC3)nc2n1Cc1ccc(-c2nc(C(F)(F)F)cn2C(C)C)cc1 [Example 130, 2-(4-cyclopropoxy-6-cyclopropylpyrimidin-5-yl)-7-(4-(1-isopropyl-4-(trifluoromethyl)-1H-imidazol-2-yl)benzyl)-N-methyl-7H-pyrrolo[2,3-d]pyrimidine-6-carboxamide] | < 100 | – | – |
| > 5 | COc1ncnc(C2CC2)c1-c1ncc2cc(C(=O)N[C@H]3C[C@@H](OC)C3)n(Cc3ccc(-c4nc(C(F)(F)F)cn4C(C)C)cc3)c2n1 [Example 131, 2-(4-cyclopropyl-6-methoxypyrimidin-5-yl)-7-(4-(1-isopropyl-4-(trifluoromethyl)-1H-imidazol-2-yl)benzyl)-N-((1s,3s)-3-methoxycyclobutyl)-7H-pyrrolo[2,3-d]pyrimidine-6-carboxamide] | < 100 | – | – |
| > 5 | CCC1(NC(=O)c2cc3cnc(-c4c(OC)ncnc4C4CC4)nc3n2Cc2ccc(-c3nc(C(F)(F)F)cn3C(C)C)cc2)COC1 [Example 132, 2-(4-cyclopropyl-6-methoxypyrimidin-5-yl)-N-(3-ethyloxetan-3-yl)-7-(4-(1-isopropyl-4-(trifluoromethyl)-1H-imidazol-2-yl)benzyl)-7H-pyrrolo[2,3-d]pyrimidine-6-carboxamide] | < 100 | – | – |

Second part, the compound before the results:

| SMILES | ΔTm at 100 µM (recombinant USP1 protein; [1]) [°C] | GI50 (UWB1.289 cells; [2]) [nM] | ΔTm at 100 µM (recombinant USP1 protein) [°C] | GI50 (UWB1.289 cells; UWB1289, 144 h) [nM] |
| --- | --- | --- | --- | --- |
| COc1ncnc(C2CC2)c1-c1ncc2cc(C(=O)N3CC[C@H](O)C3)n(Cc3ccc(-c4nc(C(F)(F)F)cn4C(C)C)cc3)c2n1 [Example 117, (S)-(2-(4-cyclopropyl-6-methoxypyrimidin-5-yl)-7-(4-(1-isopropyl-4-(trifluoromethyl)-1H-imidazol-2-yl)benzyl)-7H-pyrrolo[2,3-d]pyrimidin-6-yl) (3-hydroxypyrrolidin-1-yl)methanone] | > 5 | < 100 | – | – |
| COc1ncnc(C2CC2)c1-c1ncc2cc(C(=O)NC3CCN(C4CC4)CC3)n(Cc3ccc(-c4nc(C(F)(F)F)cn4C(C)C)cc3)c2n1 [Example 121, 2-(4-cyclopropyl-6-methoxypyrimidin-5-yl)-N-(1-cyclopropylpiperidin-4-yl)-7-(4-(1-isopropyl-4-(trifluoromethyl)-1H-imidazol-2-yl)benzyl)-7H-pyrrolo[2,3-d]pyrimidine-6-carboxamide] | > 5 | < 100 | – | – |
| COc1ncnc(C2CC2)c1-c1ncc2cc(C(=O)N3CC[C@@H](OC)C3)n(Cc3ccc(-c4nc(C(F)(F)F)cn4C(C)C)cc3)c2n1 [Example 123, (R) - (2-(4-cyclopropyl-6-methoxypyrimid in-5-yl)-7-(4-(1-isopropyl-4-(trifluoromethyl)-1H-imidazol-2-yl)benzyl)-7H-pyrrolo[2,3-d]pyrimidin-6-yl) (3-methoxypyrrolidin-1-yl)methanone] | – | – | > 5 | 100 to 500 |
| COc1ncnc(C2CC2)c1-c1ncc2cc(C(=O)NC[C@@H]3CCCO3)n(Cc3ccc(-c4nc(C(F)(F)F)cn4C(C)C)cc3)c2n1 [Example 124, (S)-2-(4-cyclopropyl-6-methoxypyrimidin-5-yl)-7-(4-(1-isopropyl-4-(trifluoromethyl)-1H-imidazol-2-yl)benzyl)-N-((tetrahydrofuran-2-yl)methyl)-7H-pyrrolo[2,3-d]pyrimidine-6-carboxamide] | > 5 | < 100 | – | – |
| COc1ncnc(C2CC2)c1-c1ncc2cc(C(=O)NC3CCN(CC(C)(C)F)CC3)n(Cc3ccc(-c4nc(C(F)(F)F)cn4C(C)C)cc3)c2n1 [Example 126, 2-(4-cyclopropyl-6-methoxypyrimidin-5-yl)-N-(1-(2-fluoro-2-methylpropyl)piperidin-4-yl)-7-(4-(1-isopropyl-4-(trifluoromethyl)-1H-imidazol-2-yl)benzyl)-7H-pyrrolo[2,3-d]pyrimidine-6-carboxamide] | > 5 | < 100 | – | – |
| COc1ncnc(C2CC2)c1-c1ncc2cc(C(=O)N3CC[C@H](OC)C3)n(Cc3ccc(-c4nc(C(F)(F)F)cn4C(C)C)cc3)c2n1 [Example 128, (S)-(2-(4-cyclopropyl-6-methoxypyrimidin-5-yl)-7-(4-(1-isopropyl-4-(trifluoromethyl)-1H-imidazol-2-yl)benzyl)-7H-pyrrolo[2,3-d]pyrimidin-6-yl) (3-methoxypyrrolidin-1-yl)methanone] | > 5 | < 100 | – | – |
| COc1ncnc(C2CC2)c1-c1ncc2cc(C(=O)NC3CCN(CC4(F)CC4)CC3)n(Cc3ccc(-c4nc(C(F)(F)F)cn4C(C)C)cc3)c2n1 [Example 133, 2-(4-cyclopropyl-6-methoxypyrimidin-5-yl)-N-(1-((1-fluorocyclopropyl)methyl)piperidin-4-yl)-7-(4-(1-isopropyl-4-(trifluoromethyl)-1H-imidazol-2-yl)benzyl)-7H-pyrrolo[2,3-d]pyrimidine-6-carboxamide] | > 5 | < 100 | – | – |
| CNC(=O)c1cc2cnc(-c3cccnc3C(C)C)nc2n1Cc1ccc(-c2nc(C(F)(F)F)cn2C(C)C)cc1 [Example 134, 7-(4-(1-isopropyl-4-(trifluoromethyl)-1H-imidazol-2-yl)benzyl)-2-(2-isopropylpyridin-3-yl)-N-methyl-7H-pyrrolo[2,3-d]pyrimidine-6-carboxamide] | > 5 | < 100 | – | – |

From patent publication EP4806898A1, “HETEROARYL DERIVATIVE COMPOUND AND USE THEREOF” (Voronoi Inc., priority 2023, dated 2025)
